Measured values reported in PubChem BioAssay (NCI).
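A five-concentration, 48-hour dose response in 96-well plates underlies each endpoint, interpolated linearly between surrounding concentrations. GI50: concentration for 50% inhibition of growth. TGI is the concentration that stops growth completely.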

Columns and labels:
Experiment in all cases: NCI tumour cell line growth inhibition, 48 h
[1] = tested on: MDA-N
[2] = tested on: BT-549 breast
[3] = tested on: DLD-1 colon
[4] = tested on: HOP-18 NSCLC
[5] = tested on: KM20L2 colon
[6] = tested on: DMS 114 small cell lung
[7] = tested on: SNB-78 CNS
[8] = tested on: XF 498 CNS
[9] = tested on: RXF-631 renal

SMILES	GI50 [2] [µM]	TGI [2] [µM]	TGI [3] [µM]	TGI [5] [µM]	other results
CCOC(=O)C(C#N)C1=CC(=O)C(=O)c2ccc(O)cc21 (stereo unspecified)					TGI [1]: 32.7 µM
Cc1cc(Nc2cc(N3CCN(C)CC3)nc(/C=C/c3ccccc3)n2)n[nH]1	1.12	> 8.73			
CO[C@H]1CC(O[C@@H]2/C(C)=C/C[C@@H]3C[C@@H](C[C@]4(CC[C@H](C)[C@@H](C5CCCCC5)O4)O3)OC(=O)[C@@H]3C=C(C)/C(=N/O)[C@H]4OC/C(=C\C=C\[C@@H]2C)[C@]43O)O[C@@H](C)C1O (stereo partly specified)	1.17	3.41			
CC(=O)[C@H]1CCC2[C@@H]3CC=C4C[C@@H]([O-])CC[C@]4(C)C3CC[C@@]21C.CC(=O)[C@H]1CCC2[C@@H]3CC=C4C[C@@H]([O-])CC[C@]4(C)C3CC[C@@]21C.CC(=O)[CH-]C(=O)c1ccccc1.CC(=O)[CH-]C(=O)c1ccccc1.Cl.[Ti+4] (stereo partly specified)			> 100	> 100	GI50 [3]: 27.4 µM; GI50 [4]: 42.9 µM; TGI [4]: > 100 µM; GI50 [5]: 10.8 µM
C/C(=C(\c1ccc(OCCN2CCCCCC2)cc1)c1ccc(OC(=O)c2ccccc2)cc1)c1ccc(Cl)cc1	4.56	8.99			
Cc1nc2c(o1)C(=Nc1ccccc1)c1nc(C)oc1C2=Nc1ccccc1			67.9	70	TGI [4]: 52.9 µM; TGI [6]: 60.4 µM; TGI [7]: > 100 µM; TGI [8]: 33.2 µM
O=C(/C=C/c1cccc([N+](=O)[O-])c1)c1ccc([N+](=O)[O-])cc1			> 100	> 100	TGI [7]: > 100 µM; TGI [9]: > 100 µM; TGI [8]: > 100 µM
COc1cccc(Nc2nc3ccccc3c3occc23)c1	10.4	23			
CN1CCN(Cc2ccc(NC(=O)c3cncc(C#Cc4cnc(N)c5cccnc45)c3)cc2C(F)(F)F)CC1	1.48	> 50			
Cn1c2c(c3c(Cl)nncc31)Cc1ccccc1-2	20.7	64.9			
CC[C@@H](C)/C=C(C)/C=C/C(=O)c1c(O)c(-c2ccc(O)cc2)cn(O)c1=O	0.487	16.1			
COC(=O)C1C(=O)O[C@@H](c2cc(OC)c(OC)cc2OC)C1C(=O)OC (mixture of isomers)			> 100	> 100	TGI [6]: > 100 µM; TGI [7]: > 100 µM; TGI [9]: > 100 µM; TGI [8]: > 100 µM
CCNC(=O)Oc1ccc(/C(=C(/C)Cc2ccc(OC)cc2)c2ccc(OCCN(CC)CC)cc2)cc1	1.73	4.16			
O=C(O)C1[O][Sb][O]C(C(=O)O)C1O (stereo unspecified)	> 100	> 100			
C/C=C1/CC(C)C(C)(O)C(=O)OCC2C(O)CN3CCC(OC1=O)C23 (stereo unspecified)		> 100			TGI [1]: > 100 µM
CC1=CC(C)(C)NN1C1=NS(=O)(=O)c2ccccc2N1C		> 100			TGI [1]: > 100 µM
CC1NC(=O)C2=C1C(=O)NC(=O)C2 (stereo unspecified)	> 100	> 100			
CNS(=O)(=O)NNS(=O)(=O)c1ccc(OC)cc1			> 100	> 100	TGI [6]: > 100 µM; TGI [9]: > 100 µM; TGI [8]: > 100 µM
NC1=NN(c2ccccc2)C(=O)C1C(=O)C(=O)Nc1ccc(Cl)c(Cl)c1 (stereo unspecified)			> 100	> 100	TGI [4]: > 100 µM; TGI [6]: > 100 µM; TGI [7]: > 100 µM; TGI [9]: > 100 µM

SMILES	GI50 [2] [µM]	TGI [2] [µM]	TGI [3] [µM]	TGI [5] [µM]	other results
CCNC(=O)OCc1c(COC(=O)NCC)c(-c2ccc(Cl)c(Cl)c2)n2c1CCC2			72.3	68.3	TGI [6]: 25.4 µM; TGI [8]: 36.3 µM
COc1cc(/C=N/N=C(\N)NO)c(Cl)cc1O					TGI [6]: > 100 µM; TGI [7]: > 100 µM
N#CC(C(=O)/C(=N\NC(N)=O)C(C#N)c1ccccc1)c1ccccc1 (stereo unspecified)			> 100	> 100	TGI [7]: > 100 µM; TGI [9]: > 100 µM
O=C(NCC1CCCO1)c1ccc(NC2=C(Cl)C(=O)N(Cc3ccccc3)C2=O)cc1 (stereo unspecified)	16.7	33.9			
COC1(OC)C2(Cl)C(Cl)=C(Cl)C1(Cl)C1C2C2CC1(C(=O)O)c1ccccc12 (stereo unspecified)			35.6	62.8	TGI [4]: 93.9 µM; TGI [6]: 39.9 µM; TGI [9]: 42.8 µM
CC(=O)[C@H]1CCC/C=C/[C@@H]2C[C@H](O)C[C@H]2[C@H](O)/C=C/C(=O)O1	0.657	> 100			
Cc1cc2c(-c3nc4ccccn4c3N)c(O)c(O)cc2c(O)c1-c1c(C)cc2c(-c3nc4ccccn4c3N)c(O)c(O)cc2c1O	0.145	> 25			
COc1cc(C2c3cc4c(cc3C(OC(=O)C[n+]3ccccc3)C3COC(=O)C23)OCO4)cc(OC)c1OC (stereo unspecified)	< 0.01	> 100			
O=C1c2ccccc2C2CCC1c1ccccc12 (stereo unspecified)			> 100	> 100	TGI [4]: > 100 µM; TGI [6]: 57 µM; TGI [7]: > 100 µM; TGI [8]: 91.6 µM
CN1CCN(C(=O)COc2ccc(/C=C3\CC4C5CC=C6CC(Cl)CCC6(C)C5CCC4(C)C3=O)cc2)CC1 (stereo unspecified)	96.1	> 100			
C#CCN(c1ccc(C(=O)N[C@@H](CCC(=O)N[C@H](CCC(=O)O)C(=O)O)C(=O)O)cc1)C1CCc2cc3nc(CO)[nH]c(=O)c3cc21 (stereo partly specified)	58	> 100			
Nc1ccccc1C(=O)CCC1C(=O)NC(=S)NC1=O			> 100	> 100	TGI [4]: > 100 µM; TGI [1]: > 100 µM; TGI [6]: > 100 µM; TGI [9]: > 100 µM
O=C1c2ccccc2-c2c1c1ccccc1c(=O)n2CCCNCCn1c2c(c3ccccc3c1=O)C(=O)c1ccccc1-2	10.8	28.6			
COC1OC2COC(C)(C)OC2C(OC(C)=O)C1NC(=O)N(CCCl)N=O (stereo unspecified)			> 100	> 100	TGI [4]: > 100 µM; TGI [6]: > 100 µM; TGI [7]: > 100 µM; TGI [8]: > 100 µM
O=C(c1ccc(Cl)cc1)C(O)c1ccc(Cl)cc1 (stereo unspecified)		> 100			
CCOP(=O)(OCC)C(C(=O)OC)C(=O)C(=O)Nc1cccc(O)c1 (stereo unspecified)		> 100			TGI [1]: > 100 µM
Clc1cccc(C2N3CCCCC3[C@@H]3c4[nH]c5ccccc5c4CCN23)c1 (stereo partly specified)			> 100	> 100	TGI [4]: > 100 µM; TGI [6]: 55.6 µM; TGI [8]: 40 µM
Cn1cc(-c2cnn3c(N)c(Br)c(C4CCCNC4)nc23)cn1 (stereo unspecified)	0.922	32.5			
